Assay: in vitro
Settings: human, hela cells, % viability

Structure (SMILES) | viability at 28.5 h, 10 µM | viability at 28.5 h, 10 µM (bulk resorufin, single well)
COc1ccc(C(C)NC(=O)c2c3c(nn2C)CCCC3)cc1F (stereo not drawn) [CBK281406] | 106% | –
CCCCN1C(=O)C(O)(c2c(C)nn(CCO)c2N)c2ccccc21 (stereo not drawn) [CBK304286] | – | 116%
COc1ccc(Nc2cc(-c3ccc(SC)cc3)ncn2)c(C)c1 [CBK091042] | 89.2% | –
Cc1cccc(CN(CC(C)(C)CN)C(=O)Nc2ccc(-c3ccccc3)cc2)n1 [CBK002453C] | 86.7% | –
Nc1ccc2nc(CCCCCC(=O)O)sc2c1 [CBK016399] | 114% | –
c1cc(-c2cncc(-c3ccsc3)n2)cs1 [CBK113356] | 95.7% | –
NS(=O)(=O)c1ccc(NC(=S)Nc2nn(Cc3ccc(Cl)c(Cl)c3)cc2Br)cc1 [CBK267082] | 94.4% | –
CC(C)(C)OC(=O)N1CCN(c2ccc([N+](=O)[O-])cn2)CC1 [CBK000134] | 95.6% | –
Nc1ncc(-c2cccc3ccccc23)nc1N1CCC[C@@H]1CO [CBK063517] | 94.1% | –
CCOC(=O)N1CCC2(CC1)Oc1ccc(-c3ccc(OC)cc3OC)cc1O2 [CBK091467] | – | 99.7%
O=C(O)c1ccc(S(=O)(=O)Nc2nnc(C(F)(F)F)s2)cc1 [CBK062023] | 91.5% | –
CCN1CCCC1CN(Cc1ccccn1)Cc1ccco1 (stereo not drawn) [CBK283161] | 91.3% | –
COc1ccc(CNc2cc(-c3cccc(Cl)c3)nc3ccnn23)cc1 [CBK037037] | 95.8% | –
Cc1csc2c(C3CCN(C(=O)c4ccn(C)n4)CC3)nc(C)n12 [CBK285248] | 105% | –
O=C(O)c1cc(-c2ccccc2)nc(Nc2nc3ccccc3s2)n1 [CBK264665] | 108% | –
COc1cccc(C(=O)NCCC(=O)N2CCc3ccccc3C2)c1 [CBK307575] | 84.3% | –
CCOCCCNC(=O)/C(=C/c1cccnc1)NC(=O)c1ccccc1 [CBK126866] | 90.8% | –
Nc1ncnc(N(c2ccccc2)c2ccccc2)n1 [CBK288139] | 104% | –

Structure (SMILES) | viability at 28.5 h, 10 µM | viability at 28.5 h, 10 µM (bulk resorufin, single well)
COc1cccc(-n2ncc(-c3cccnc3)n2)c1 [CBK112813] | 89.9% | –
Cc1cccnc1C(c1ccc(F)cc1)N(C)C(=O)C1CCN(C(=O)OCc2ccccc2)CC1 (stereo not drawn) [CBK060095] | 116% | –
CSc1nc(C#N)c(N)c(SC2C=CCCC2)n1 (stereo not drawn) [CBK021817] | 89.4% | –
Nc1ncc(-c2cccnc2)nc1NC1CCC(O)CC1 (stereo not drawn) [CBK063840] | 92.7% | –
COc1ccc(-c2nc(C3CCNCC3)n3ccccc23)cc1 [CBK035971] | 92.9% | –
O=C(c1cccs1)N1CCC2(CC1)Nc1ccccc1-n1cccc12 [CBK283489] | 99.3% | –
O=C(Nc1cccnc1)N1CCCC(CO)C1 (stereo not drawn) [CBK156068] | 92.4% | –
N#Cc1cccc(-n2cc(-c3ccc(Br)cc3F)nn2)c1 [CBK113143] | 95.4% | –
Cc1ccccc1C(=O)Nc1nc2ccc(S(C)(=O)=O)cc2s1 [CBK287337] | 95.1% | –
O=C(c1ccco1)N1CCC(c2ccnc3nc4ccccc4n23)CC1 [CBK284490] | 87.2% | –
CCOc1ccc(S(=O)(=O)N2CCCC(C(=O)NCCO)C2)cc1 (stereo not drawn) [CBK269968] | 83.8% | –
COc1cccc2sc(Nc3nnc(-c4cccs4)o3)nc12 [CBK287473] | 85.4% | –
O=C(CN1C(=O)N2CCN=C2c2ccccc21)NC1CCCC1 [CBK283959] | 100% | –
CC1=C[C@@H](CN2CCC(O)CC2)[C@H](C(C)C)C[C@H]1Cc1nnc(-c2ccccc2)o1 [CBK289220] | 97.2% | –
Cc1ccccc1Nc1nc(N)nc(CN2CC(C)OC(C)C2)n1 (stereo not drawn) [CBK305856] | 105% | –
CCN(Cc1ccccc1)Cc1c(O)ccc2c(=O)c(-c3ccccc3OC)c(C(F)(F)F)oc12 [CBK265839] | 90% | –
O=C(c1ccc([N+](=O)[O-])cc1)C12CN3CN(CN(C3)C1)C2 [CBK011238] | 87.1% | –
CC(C)(C)c1cc(C(=O)O)[nH]n1 [CBK260874] | 103% | –

Source: article PMC12040169 (PLOS Biology, 2025)
